# From patent US20010053795A1, “Paradoxical pharmacology” (priority 2000, published 2001)
# Tested on: spontaneously hypertensive rat (SHR)
# Test: Blood pressure (tail-cuff) in spontaneously hypertensive rats after L-NAME infusion
# Assay type: in vivo
# Settings: L-NAME 10 ml/kg/10 min for 10 min
# Experimental: To determine a possible mechanism underlying the decrease in blood pressure after infusion of NE/E, L-NAME (N(omega)-nitro-L-arginine methyl ester), which is a nitric oxide synthase inhibitor, was infused at a rate of 10 ml/kg/10 min for a total 10 min. After infusion of the L-NAME, blood pressure was measured via the tail-cuff method. FIG. 3 illustrates the effect of the blood pressure after infusion of L-NAME.
# Nitric oxide is tonically released by the activity of the constitutive endothelial and neuronal NO synthases (NOS). Nitric oxide is vasodilatory, and tonically produced NO maintains low blood pressure. During exercise, there is an increase in norepinephrine and an increase in nitric oxide production. […] The increase in production of nitric oxide is due to an activation of nitric oxide synthase, which in turn increase the levels of nitric oxide.
compound,measurement,setting,value
"COC(=O)[C@@H](N)CCCNC(=N)N[N+](=O)[O-] [L-NAME, N(omega)-nitro-L-arginine methyl ester]",effect on blood pressure after L-NAME infusion,SHR treated with NE/E for 28 days,increase in blood pressure
same,effect on blood pressure after L-NAME infusion,SHR treated with vehicle for 28 days (controls),further decrease in the blood pressure
